Results: US20150352037A1, “ANTI-AGING COMPOSITION FOR VITALIZATION OF RETINOIC ACID RECEPTOR THAT CONTAINS MIXED EXTRACT OF CHINESE MATRIMONY VINE AND PINE NEEDLES AS EFFECTIVE COMPONENT” (Amorepacific Corporation, priority 2011, published 2015)

Experiments:
Type in all cases: cell-based
[1] = test system: collagenase; assay: Inhibition of collagenase expression (collagenase production) in human fibroblasts, ELISA absorbance at 405 nm; settings: 24 h treatment, extracts 100 μg/ml (Example 3: 100 μg/ml of each extract), retinoic acid 1 μM, untreated control = 100
Procedure: Using the Lycium chinense fruit extract obtained in Example 1, the pine tree extract obtained in Example 2, and a 1:1 (w/w) mixture (Example 3) of a Lycium chinense fruit extract obtained by extracting 100 g of Lycium chinense fruits according to the method of Example 1 and a pine needle extract obtained by extracting 100 g of pine needles according to the method of Example 2, their effects on the inhibition of collagenase expression (collagenase production) were measured in the following manner. As a positive control, retinoic acid known to inhibit collagenase expression was used. […]
Next, the degree of collagenase production in each of the harvested cell cultures was measured using a collagenase measurement device (Amersham Phamasia, USA). […]
The absorbance of the 96-well plate having a yellow color was measured at 405 nm using an absorbance spectrometer, and the expression of collagenase was calculated using the following Equation 1. Herein, the absorbance of an untreated group was used as a control group. That is, the expression of collagenase in the control group was set at 100, and the expression of collagenase in each test group was calculated relative to the control group. […]
wherein A is the absorbance of the cell group treated with each test material, and B is the absorbance of the control group.

[2] = target: T1, retinoic acid receptor α (RAR-α) (Homo sapiens, UniProt P10276); assay: Retinoic acid receptor α transcriptional activity, luciferase reporter in transfected CV-1 cells; settings: monkey kidney epithelial CV-1 cells, 20 h; extracts 100 μg/ml (Example 3: 100 μg/ml of each extract), retinoic acid 1 μM; corrected with β-galactosidase activity; control = 100
T1 construct: expressed in transfected cells; host or cells: monkey kidney epithelial CV-1 cells
T1 sequence (P10276 1-462): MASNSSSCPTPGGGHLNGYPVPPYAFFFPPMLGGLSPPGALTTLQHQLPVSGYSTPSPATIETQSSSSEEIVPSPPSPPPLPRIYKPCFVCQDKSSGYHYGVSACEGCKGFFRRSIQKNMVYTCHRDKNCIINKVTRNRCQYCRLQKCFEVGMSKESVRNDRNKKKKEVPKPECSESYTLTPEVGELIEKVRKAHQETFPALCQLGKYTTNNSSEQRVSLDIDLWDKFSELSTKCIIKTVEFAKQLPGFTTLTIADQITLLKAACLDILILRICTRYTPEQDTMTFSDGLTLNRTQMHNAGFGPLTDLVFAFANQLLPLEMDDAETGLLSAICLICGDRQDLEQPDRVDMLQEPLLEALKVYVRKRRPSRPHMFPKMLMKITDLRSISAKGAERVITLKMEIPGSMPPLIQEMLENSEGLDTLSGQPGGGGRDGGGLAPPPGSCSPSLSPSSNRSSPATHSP
Procedure: (§1) Using the Lycium chinense extract obtained in Example 1, the pine needle extract obtained in Example 2, and the Lycium chinense extract/pine needle extract mixture (Example 3) obtained by mixing the extract of Example 1 with the extract of Example 2, their effects on retinoic acid receptor α/γ (RAR-α/γ) transcriptional activities were measured in the following manner. As a positive control, retinoic acid known to activate retinoic acid receptor was used.
(§2) First, monkey kidney epithelial CV-1 cells were seeded into a 24-well plate at a concentration of 4×10^4 cells/well and cultured for 12-16 hours. Before transfection, the plate was washed with phosphate buffered saline (PBS), and then the medium was cultured. […] Then, each of the cell lysates was transferred to a cell culture plate (Costar) for a 96-well luminometer, and luciferase activity for each cell lysate was measured using Luciferase Assay System™ kit (Promega Corporation) according to the manufacturer's instruction. […]
(§3) Next, 50 μl of 1 M sodium carbonate (Na2CO3) solution was added to each well, and the absorbance of each well at 415 nm was measured. The efficiency of transformation in each cell lysate was corrected with the β-galactosidase activity measured as described above, and the relative activity of luciferase to the β-galactosidase activity was calculated and compared between Examples.

[3] = target: T2, retinoic acid receptor γ (RAR-γ) (Homo sapiens, UniProt P13631); assay: Retinoic acid receptor γ transcriptional activity, luciferase reporter in transfected CV-1 cells; settings: monkey kidney epithelial CV-1 cells, 20 h; extracts 100 μg/ml (Example 3: 100 μg/ml of each extract), retinoic acid 1 μM; corrected with β-galactosidase activity; control = 100
T2 construct: expressed in transfected cells; host or cells: monkey kidney epithelial CV-1 cells
T2 sequence (P13631 1-454): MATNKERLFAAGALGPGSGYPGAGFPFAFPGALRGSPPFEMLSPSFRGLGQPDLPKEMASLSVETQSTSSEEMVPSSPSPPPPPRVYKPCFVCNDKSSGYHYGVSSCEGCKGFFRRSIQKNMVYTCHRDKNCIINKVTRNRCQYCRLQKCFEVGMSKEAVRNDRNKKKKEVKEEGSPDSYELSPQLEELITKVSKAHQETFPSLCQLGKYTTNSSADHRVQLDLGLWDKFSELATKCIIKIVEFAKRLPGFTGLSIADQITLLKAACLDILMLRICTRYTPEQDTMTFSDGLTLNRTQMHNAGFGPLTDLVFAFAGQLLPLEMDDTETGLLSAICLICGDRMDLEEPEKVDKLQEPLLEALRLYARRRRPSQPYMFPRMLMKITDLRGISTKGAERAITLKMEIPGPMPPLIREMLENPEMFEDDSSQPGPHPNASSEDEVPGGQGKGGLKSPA
Procedure: as §1, §2, §3

CC1=C(/C=C/C(C)=C/C=C/C(C)=C/C(=O)O)C(C)(C)CCC1 [Retinoic acid, retinoic acid] was tested. Which “Collagenase expression (%)” value [1] did it give?
The value was 51.3%.

And the “Relative activity (%) of luciferase (RAR-α)” value [2]?
The value was 343%.

And the “Relative activity (%) of luciferase (RAR-γ)” value [3]?
The value was 385%.
